Results: ChEMBL document CHEMBL1909046, “DrugMatrix in vitro pharmacology data”

Assays:
[1] = DRUGMATRIX: Atrial Natriuretic Factor (ANF) radioligand binding (ligand: [125I] ANF (rat)); format: cell membranes, Cavia porcellus, Dunkin-Hartley, Adrenal gland, Membrane; conditions: Not Active = under 50% inhibition at 10 µM
Calcitonin receptor = biological target: T1, Calcitonin receptor (Homo sapiens, UniProt P30988); format: cell membranes, Membrane; conditions: t47d; also: in other assays of this panel Not Active means under 50% inhibition at 10 µM
T1 sequence (P30988 whole entry): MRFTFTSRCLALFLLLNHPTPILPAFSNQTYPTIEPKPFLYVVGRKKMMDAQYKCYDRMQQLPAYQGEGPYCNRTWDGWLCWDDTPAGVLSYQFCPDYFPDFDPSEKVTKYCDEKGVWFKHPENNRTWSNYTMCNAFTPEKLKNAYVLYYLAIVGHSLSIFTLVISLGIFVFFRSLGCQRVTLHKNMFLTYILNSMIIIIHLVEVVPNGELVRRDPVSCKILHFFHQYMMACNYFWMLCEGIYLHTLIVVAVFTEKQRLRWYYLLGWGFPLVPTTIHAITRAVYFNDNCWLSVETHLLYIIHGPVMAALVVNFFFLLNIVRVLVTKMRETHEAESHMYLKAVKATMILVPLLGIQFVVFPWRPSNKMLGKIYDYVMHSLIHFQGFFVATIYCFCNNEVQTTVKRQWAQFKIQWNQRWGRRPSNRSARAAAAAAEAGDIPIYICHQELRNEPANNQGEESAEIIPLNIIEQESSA

[2] = biological target: 5-hydroxytryptamine receptor 4 (Cavia porcellus, UniProt O70528); format: cell membranes, Dunkin-Hartley, Striatum, Membrane; also: in other assays of this panel Not Active means under 50% inhibition at 10 µM
[3] = biological target: 5-hydroxytryptamine receptor 6 (Homo sapiens, UniProt P50406); format: cell membranes, HeLa, Membrane; conditions: hela; also: in other assays of this panel Not Active means under 50% inhibition at 10 µM
Thromboxane-A synthase = biological target: T2, Thromboxane-A synthase (Homo sapiens, UniProt P24557); experiment: biochemical; format: tissue-based, Platelet; conditions: platelet;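 also: enzyme inhibition assay with PGH2 supplied as substrate; in other assays of this panel Not Active means under 50% inhibition at 10 µM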
T2 sequence (P24557 whole entry): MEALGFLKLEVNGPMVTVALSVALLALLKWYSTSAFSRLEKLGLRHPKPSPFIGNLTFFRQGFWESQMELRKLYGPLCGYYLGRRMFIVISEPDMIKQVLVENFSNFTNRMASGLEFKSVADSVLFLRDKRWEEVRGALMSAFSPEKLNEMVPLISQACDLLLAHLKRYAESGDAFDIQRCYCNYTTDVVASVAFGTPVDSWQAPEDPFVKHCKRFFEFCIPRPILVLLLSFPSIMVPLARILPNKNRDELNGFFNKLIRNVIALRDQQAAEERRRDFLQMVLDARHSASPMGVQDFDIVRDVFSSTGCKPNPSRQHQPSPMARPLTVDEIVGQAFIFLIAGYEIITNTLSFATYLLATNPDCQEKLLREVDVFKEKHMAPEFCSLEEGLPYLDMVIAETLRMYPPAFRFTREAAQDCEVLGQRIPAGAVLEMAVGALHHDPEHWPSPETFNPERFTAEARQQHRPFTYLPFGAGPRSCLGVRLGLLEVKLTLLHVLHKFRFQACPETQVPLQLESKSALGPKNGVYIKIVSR

[4] = biological target: Vascular endothelial growth factor receptor 1 (Homo sapiens, UniProt P17948); format: cell-based; conditions: huvec; also: in other assays of this panel Not Active means under 50% inhibition at 10 µM
[5] = biological target: T3, Vasoactive intestinal polypeptide receptor 1 (Homo sapiens, UniProt P32241); format: cell membranes, Membrane; conditions: ht-29; also: in other assays of this panel Not Active means under 50% inhibition at 10 µM
T3 sequence (P32241 whole entry): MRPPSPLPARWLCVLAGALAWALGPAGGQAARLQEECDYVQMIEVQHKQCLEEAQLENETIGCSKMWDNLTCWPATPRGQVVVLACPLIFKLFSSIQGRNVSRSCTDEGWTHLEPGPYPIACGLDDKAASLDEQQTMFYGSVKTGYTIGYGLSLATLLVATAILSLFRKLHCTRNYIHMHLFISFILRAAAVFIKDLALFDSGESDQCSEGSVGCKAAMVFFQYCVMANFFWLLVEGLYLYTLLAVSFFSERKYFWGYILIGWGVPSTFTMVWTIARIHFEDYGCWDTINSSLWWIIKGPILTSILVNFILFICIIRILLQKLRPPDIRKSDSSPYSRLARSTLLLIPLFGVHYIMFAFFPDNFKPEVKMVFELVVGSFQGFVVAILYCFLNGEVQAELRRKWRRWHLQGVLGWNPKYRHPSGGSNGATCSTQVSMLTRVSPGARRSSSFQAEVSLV

[6] = biological target: T4, C-X-C chemokine receptor type 2 (Homo sapiens, UniProt P25025); format: cell membranes, Membrane; conditions: cho-k1; also: in other assays of this panel Not Active means under 50% inhibition at 10 µM
T4 sequence (P25025 whole entry): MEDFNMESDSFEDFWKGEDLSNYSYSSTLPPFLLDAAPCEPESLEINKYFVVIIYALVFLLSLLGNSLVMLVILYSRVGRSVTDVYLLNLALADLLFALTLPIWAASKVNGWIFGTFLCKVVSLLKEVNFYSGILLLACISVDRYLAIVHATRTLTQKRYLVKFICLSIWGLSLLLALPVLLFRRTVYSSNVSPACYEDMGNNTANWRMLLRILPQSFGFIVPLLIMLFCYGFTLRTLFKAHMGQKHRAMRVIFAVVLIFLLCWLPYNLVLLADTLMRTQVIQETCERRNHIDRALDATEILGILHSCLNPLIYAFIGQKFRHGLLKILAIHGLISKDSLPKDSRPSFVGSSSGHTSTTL

[7] = DRUGMATRIX: GABAA, Flunitrazepam, Central radioligand binding (ligand: [3H] Flunitrazepam); format: cell membranes, Rattus norvegicus, Wistar, Brain, Membrane; conditions: Not Active = under 50% inhibition at 10 µM
Leukotriene C4 synthase = biological target: T5, Leukotriene C4 synthase (Cavia porcellus, UniProt A6XA80); experiment: biochemical; format: tissue-based, Lung
T5 sequence (A6XA80 whole entry): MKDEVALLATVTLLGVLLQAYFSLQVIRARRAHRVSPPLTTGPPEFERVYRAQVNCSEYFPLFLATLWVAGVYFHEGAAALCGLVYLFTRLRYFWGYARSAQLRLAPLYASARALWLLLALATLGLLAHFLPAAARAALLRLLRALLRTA

[8] = biological target: Matrix metalloproteinase-9 (Homo sapiens, UniProt P14780); format: cell-based
Adenosine receptor A1 = biological target: T6, Adenosine receptor A1 (Homo sapiens, UniProt P30542); format: cell membranes, CHO, Membrane; conditions: cho
T6 sequence (P30542 whole entry): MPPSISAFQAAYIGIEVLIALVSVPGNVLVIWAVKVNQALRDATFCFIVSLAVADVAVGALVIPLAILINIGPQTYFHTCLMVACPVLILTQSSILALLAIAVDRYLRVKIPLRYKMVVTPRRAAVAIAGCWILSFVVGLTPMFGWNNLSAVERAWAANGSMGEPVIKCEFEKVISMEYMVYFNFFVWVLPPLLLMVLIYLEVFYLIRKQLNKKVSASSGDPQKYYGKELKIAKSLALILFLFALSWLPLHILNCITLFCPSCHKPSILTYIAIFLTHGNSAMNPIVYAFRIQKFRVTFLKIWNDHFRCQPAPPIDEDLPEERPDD

Cytochrome P450 3A4 = Cytochrome P450 3A4 (Homo sapiens, UniProt P08684); conditions: bti-tn-5b1-4; also: in other assays of this panel Not Active means under 50% inhibition at 10 µM
Chain of Cytochrome P450 3A4 (P08684 whole entry): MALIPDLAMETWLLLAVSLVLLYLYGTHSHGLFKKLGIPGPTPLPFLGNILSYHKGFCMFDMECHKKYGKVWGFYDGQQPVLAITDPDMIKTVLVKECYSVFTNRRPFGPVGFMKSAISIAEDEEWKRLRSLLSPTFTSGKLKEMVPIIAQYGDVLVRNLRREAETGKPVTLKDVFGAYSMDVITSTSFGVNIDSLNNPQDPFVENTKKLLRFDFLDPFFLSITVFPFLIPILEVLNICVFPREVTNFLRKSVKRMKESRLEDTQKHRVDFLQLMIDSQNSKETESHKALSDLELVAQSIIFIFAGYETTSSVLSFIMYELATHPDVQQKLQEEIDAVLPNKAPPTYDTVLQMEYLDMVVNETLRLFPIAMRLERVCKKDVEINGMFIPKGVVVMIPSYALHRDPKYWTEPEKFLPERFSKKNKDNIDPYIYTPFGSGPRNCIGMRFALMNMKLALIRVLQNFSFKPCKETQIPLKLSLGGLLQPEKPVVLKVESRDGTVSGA

Chain of Matrix metalloproteinase-9 (P14780 whole entry): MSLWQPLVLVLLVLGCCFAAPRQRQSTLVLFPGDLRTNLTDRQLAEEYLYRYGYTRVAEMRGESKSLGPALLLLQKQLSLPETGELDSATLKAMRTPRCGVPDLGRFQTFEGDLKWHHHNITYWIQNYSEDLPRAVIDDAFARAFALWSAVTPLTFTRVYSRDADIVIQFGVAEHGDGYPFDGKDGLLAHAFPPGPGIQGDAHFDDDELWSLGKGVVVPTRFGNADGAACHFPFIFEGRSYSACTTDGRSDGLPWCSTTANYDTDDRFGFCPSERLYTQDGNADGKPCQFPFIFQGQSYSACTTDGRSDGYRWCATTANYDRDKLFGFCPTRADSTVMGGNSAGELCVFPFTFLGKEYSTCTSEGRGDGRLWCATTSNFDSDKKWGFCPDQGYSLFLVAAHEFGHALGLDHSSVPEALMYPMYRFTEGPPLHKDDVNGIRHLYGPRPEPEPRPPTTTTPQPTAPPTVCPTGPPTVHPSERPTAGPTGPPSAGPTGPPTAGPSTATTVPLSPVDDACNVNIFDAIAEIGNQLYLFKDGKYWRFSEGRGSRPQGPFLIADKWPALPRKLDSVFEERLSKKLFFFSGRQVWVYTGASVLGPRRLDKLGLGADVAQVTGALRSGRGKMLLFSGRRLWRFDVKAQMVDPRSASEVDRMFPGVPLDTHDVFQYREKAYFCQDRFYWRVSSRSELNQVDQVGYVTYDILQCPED
Chain of Vascular endothelial growth factor receptor 1 (P17948 whole entry): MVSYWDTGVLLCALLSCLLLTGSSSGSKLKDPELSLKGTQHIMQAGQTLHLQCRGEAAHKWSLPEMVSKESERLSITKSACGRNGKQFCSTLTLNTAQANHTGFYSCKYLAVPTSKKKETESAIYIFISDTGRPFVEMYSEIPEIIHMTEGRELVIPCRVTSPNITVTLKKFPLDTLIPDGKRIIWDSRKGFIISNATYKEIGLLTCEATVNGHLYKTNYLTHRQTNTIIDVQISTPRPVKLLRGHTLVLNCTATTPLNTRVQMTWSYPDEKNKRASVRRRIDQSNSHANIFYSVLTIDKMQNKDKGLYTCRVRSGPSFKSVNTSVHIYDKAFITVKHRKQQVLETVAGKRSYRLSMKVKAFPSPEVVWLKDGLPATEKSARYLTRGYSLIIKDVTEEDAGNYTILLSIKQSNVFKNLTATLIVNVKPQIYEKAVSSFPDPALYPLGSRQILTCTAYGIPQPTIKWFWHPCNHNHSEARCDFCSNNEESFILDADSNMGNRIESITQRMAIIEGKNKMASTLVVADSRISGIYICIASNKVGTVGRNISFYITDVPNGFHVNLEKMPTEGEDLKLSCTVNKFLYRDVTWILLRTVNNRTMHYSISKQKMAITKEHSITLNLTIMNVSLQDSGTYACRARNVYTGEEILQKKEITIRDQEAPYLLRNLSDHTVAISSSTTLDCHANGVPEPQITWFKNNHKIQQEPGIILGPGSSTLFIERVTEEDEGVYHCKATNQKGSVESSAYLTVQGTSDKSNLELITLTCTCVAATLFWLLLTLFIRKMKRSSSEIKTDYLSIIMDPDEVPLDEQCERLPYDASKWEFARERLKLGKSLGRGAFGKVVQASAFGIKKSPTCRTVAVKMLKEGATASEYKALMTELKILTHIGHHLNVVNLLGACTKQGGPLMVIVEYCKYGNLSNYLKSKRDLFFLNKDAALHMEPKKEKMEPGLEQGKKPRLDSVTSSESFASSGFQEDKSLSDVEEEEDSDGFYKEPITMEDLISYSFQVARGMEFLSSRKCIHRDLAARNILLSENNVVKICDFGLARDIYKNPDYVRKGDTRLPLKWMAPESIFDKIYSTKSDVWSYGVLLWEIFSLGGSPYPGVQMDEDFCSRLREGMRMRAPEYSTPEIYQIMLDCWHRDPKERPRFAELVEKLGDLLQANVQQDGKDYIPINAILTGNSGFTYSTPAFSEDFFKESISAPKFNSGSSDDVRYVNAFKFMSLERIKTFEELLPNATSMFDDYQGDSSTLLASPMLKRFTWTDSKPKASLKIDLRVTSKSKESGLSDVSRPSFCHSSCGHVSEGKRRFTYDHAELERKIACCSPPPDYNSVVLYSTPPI
Chain of 5-hydroxytryptamine receptor 6 (P50406 whole entry): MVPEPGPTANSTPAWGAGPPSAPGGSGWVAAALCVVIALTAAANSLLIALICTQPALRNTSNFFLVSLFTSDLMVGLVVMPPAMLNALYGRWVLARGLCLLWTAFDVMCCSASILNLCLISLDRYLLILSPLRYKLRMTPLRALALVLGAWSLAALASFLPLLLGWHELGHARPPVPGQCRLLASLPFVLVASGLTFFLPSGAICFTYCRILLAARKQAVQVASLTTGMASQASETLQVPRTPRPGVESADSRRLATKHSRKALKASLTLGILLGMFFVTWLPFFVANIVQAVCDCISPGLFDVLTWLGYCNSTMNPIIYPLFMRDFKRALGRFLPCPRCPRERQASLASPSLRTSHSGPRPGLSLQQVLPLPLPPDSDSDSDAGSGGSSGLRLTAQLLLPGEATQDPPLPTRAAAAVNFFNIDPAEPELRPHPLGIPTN
Chain of 5-hydroxytryptamine receptor 4 (O70528 whole entry): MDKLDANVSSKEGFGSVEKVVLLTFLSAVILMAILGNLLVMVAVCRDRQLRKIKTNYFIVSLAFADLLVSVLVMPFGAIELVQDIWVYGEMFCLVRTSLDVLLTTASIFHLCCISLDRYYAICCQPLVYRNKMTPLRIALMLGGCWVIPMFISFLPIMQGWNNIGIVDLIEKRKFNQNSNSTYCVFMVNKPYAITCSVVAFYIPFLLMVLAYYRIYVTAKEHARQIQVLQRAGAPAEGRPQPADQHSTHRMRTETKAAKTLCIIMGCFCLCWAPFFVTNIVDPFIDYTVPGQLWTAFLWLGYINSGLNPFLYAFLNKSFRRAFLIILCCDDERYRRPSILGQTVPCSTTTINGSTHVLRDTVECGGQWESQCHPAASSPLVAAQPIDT

SMILES | IC50 [1] | Ki [1] | IC50 (Calcitonin receptor) | IC50 [2] | IC50 [3] | IC50 (Thromboxane-A synthase) | IC50 [4] | IC50 [5] | IC50 [6] | IC50 [7] | Ki [7] | IC50 (Leukotriene C4 synthase; read-out: IC50) [µM] | IC50 [8] | IC50 (Adenosine receptor A1) | IC50 (Cytochrome P450 3A4) | Ki (Cytochrome P450 3A4) | IC50 (Leukotriene C4 synthase)
COc1ccc2cc(CC(=O)O)ccc2c1 | Not Active | Not Active | Not Active | Not Active | Not Active | Not Active | Not Active | Not Active | Not Active | Not Active | Not Active | 49.7 | Not Active | Not Active | Not Active | Not Active | 
c1ccc2c(c1)cc1ccc3cccc4ccc2c1c34 | Not Active | Not Active | Not Active | Not Active | Not Active | Not Active | Not Active | Not Active | Not Active | Not Active | Not Active |  | Not Active | Not Active | Not Active | Not Active | Not Active
CC=CC(=O)N(CC)c1ccccc1C | Not Active | Not Active | Not Active | Not Active | Not Active | Not Active | Not Active | Not Active | Not Active | Not Active | Not Active |  | Not Active | Not Active | Not Active | Not Active | Not Active
C=C1C(=O)O[C@@H]2C3O[C@]3(C)CC/C=C(\C)CC[C@@H]12 (some centres not stated) | Not Active | Not Active | Not Active | Not Active | Not Active | Not Active | Not Active | Not Active | Not Active | Not Active | Not Active |  | Not Active | Not Active | Not Active | Not Active | Not Active
CC(/C=C1\SC(=S)N(CC(=O)O)C1=O)=C\c1ccccc1 | Not Active | Not Active | Not Active | Not Active | Not Active | Not Active | Not Active | Not Active | Not Active | Not Active | Not Active |  | Not Active | Not Active | Not Active | Not Active | Not Active
CCCCCCCCCc1ccc(O)cc1 [4-NONYLPHENOL] | Not Active | Not Active | Not Active | Not Active | Not Active | Not Active | Not Active | Not Active | Not Active | Not Active | Not Active |  | Not Active | Not Active | Not Active | Not Active | Not Active
COc1ccc2c(c1)c(CC(=O)OCC(=O)O)c(C)n2C(=O)c1ccc(Cl)cc1 [ACEMETACIN] | Not Active | Not Active | Not Active | Not Active | Not Active | Not Active | Not Active | Not Active | Not Active | Not Active | Not Active |  | Not Active | Not Active | Not Active | Not Active | Not Active
Cc1[nH]cnc1CN1CCc2c(c3ccccc3n2C)C1=O [ALOSETRON] | Not Active | Not Active | Not Active | Not Active | Not Active | Not Active | Not Active | Not Active | Not Active | Not Active | Not Active |  | Not Active | Not Active | Not Active | Not Active | Not Active
CC1COc2c(N3CCN(C)CC3)c(F)cc3c(=O)c(C(=O)O)cn1c23 (configuration not stated) [OFLOXACIN] | Not Active | Not Active | Not Active | Not Active | Not Active | Not Active | Not Active | Not Active | Not Active | Not Active | Not Active |  | Not Active | Not Active |  |  | Not Active
